*1 amine or outer side, *2 acyl side, *3 side chain or, on linkers, in order; H or OH if unused. Where a SMILES comes first, the peptide text is derived from it. [ ]: non-standard residue; d: D form. X1 = O=C([C@H](CSS(=O)(=O)O)N[*:1])[*:2]
Tests used:
[1] = Stability test in frozen state (residual amount by reverse HPLC); format: physicochemical; conditions: -80° C., 5 months, compared to native calcitonin-I
Method: First, 50 μg each of the diS-sulfonated salmon calcitonin-I and salmon calcitonin-I were separately dissolved in 100 μl of 2.5 mM citrate (pH 2.8) buffer, and the solutions were frozen and stored at -80° C. After 5 months, the frozen samples were thawed, and residual diS-sulfonated salmon calcitonin-I and salmon calcitonin-I were measured by reverse HPLC.

[2] = Stability test in liquid form (residual amount by reverse HPLC); format: physicochemical; conditions: 37° C., 2 weeks, compared to native salmon calcitonin-I
Method: First, 50 μg each of the diS-sulfonated salmon calcitonin-I and salmon calcitonin-I were separately dissolved in 100 μl of 50 mM Tris-Hcl buffer solution (pH 7.2), and the solutions were stored at 37° C. After 2 weeks, the residual diS-sulfonated salmon calcitonin-I and salmon calcitonin-I were measured by reverse HPLC.

CC(C)C[C@H](NC(=O)[C@H](CCCCN)NC(=O)CNC(=O)[C@H](CC(C)C)NC(=O)[C@@H](NC(=O)[C@H](CSS(=O)(=O)O)NC(=O)[C@@H](NC(=O)[C@H](CO)NC(=O)[C@H](CC(C)C)NC(=O)[C@H](CC(N)=O)NC(=O)[C@H](CO)NC(=O)[C@@H](N)CSS(=O)(=O)O)[C@@H](C)O)C(C)C)C(=O)N[C@@H](CO)C(=O)N[C@@H](CCC(N)=O)C(=O)N[C@@H](CCC(=O)O)C(=O)N[C@@H](CC(C)C)C(=O)N[C@@H](Cc1c[nH]cn1)C(=O)N[C@@H](CCCCN)C(=O)N[C@@H](CC(C)C)C(=O)N[C@@H](CCC(N)=O)C(=O)N[C@H](C(=O)N[C@@H](Cc1ccc(O)cc1)C(=O)N1CCC[C@H]1C(=O)N[C@@H](CCCNC(=N)N)C(=O)N[C@H](C(=O)N[C@@H](CC(N)=O)C(=O)N[C@H](C(=O)NCC(=O)N[C@@H](CO)C(=O)NCC(=O)N[C@H](C(=O)N1CCC[C@H]1C(N)=O)[C@@H](C)O)[C@@H](C)O)[C@@H](C)O)[C@@H](C)O [diS-sulfonated salmon calcitonin-I] (H-[X1]SNLST[X1]VLGKLSQELHKLQTYPRTNTGSGTP-NH2)
Stability in the frozen state (in words) [1]: remarkably stable | Stability in a solution (in words) [2]: remarkably stable

— patent US5153308A, “S-sulfonated calcitonin derivatives” (Teijin Limited, priority 1988, dated 1992)
